# Publication PMC11256326, “Discovery of Heparin Mimetic, Potent, and Selective Inhibitors of Human Clotting Factor XIIIa” (ACS Omega, 2024)
# Marks after values point to notes of the source that are not given here.
# Assays:
# [1] = target: T1, papain (Carica papaya, UniProt P00784); assay: papain chromogenic substrate assay; type: biochemical
# T1 construct: purchased Sigma Aldrich
# T1 sequence (P00784 134-345): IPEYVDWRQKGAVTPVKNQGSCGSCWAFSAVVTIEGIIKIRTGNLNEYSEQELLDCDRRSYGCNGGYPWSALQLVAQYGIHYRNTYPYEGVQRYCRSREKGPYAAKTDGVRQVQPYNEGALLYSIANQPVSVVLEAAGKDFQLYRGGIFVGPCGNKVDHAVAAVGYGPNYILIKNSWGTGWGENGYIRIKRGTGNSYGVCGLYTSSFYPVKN
# Excerpt: FXIIIa and TG-2 belong to the same transglutaminase superfamily, and they share similar protein folds with a sequence similarity of 34%. Although we believe that sulfonated heparin mimetics are less likely to distribute to peripheral tissues, we evaluated inhibitor 16′s potential to inhibit TG-2 (we used recombinant TG-2). […] Likewise, we studied the inhibition of papain, a related cysteine protease, by molecule 16.
# Direct inhibition of papain, a cysteine protease, by inhibitor 16 was also evaluated using a chromogenic substrate assay on a microplate reader as reported earlier.[36] Briefly, to each well of a 96-well microplate containing 91 μL of 50 mM Tris-HCl buffer, pH 7.4, containing 100 mM NaCl, 2.5 mM CaCl2, 100 mM DTT, 0.1% PEG8000, and 0.02% Tween80 was added 5 μL of inhibitor 16 (0–20 mM) or vehicle, and 3 μL of papain (130 U/mL) at 37 °C. After 5 min incubation, 1 μL of N-α-benzoyl-L-arginine 4-nitroanilide hydrochloride, the chromogenic substrate (17.7 mM) was rapidly added, and the residual enzyme activity was measured from the initial rate of increase in absorbance at 405 nm. Relative residual enzyme activity as a function of the inhibitor concentration was measured and inhibition parameters were calculated using logistic eq 1.
# [2] = target: T2, FXIIIa (Homo sapiens, UniProt P00488); assay: Michaelis-Menten kinetics of dansylcadaverine and N,N-dimethylcasein conjugation by human FXIIIa; type: biochemical; details: for VMAX, dansylcadaverine varied: N,N-dimethylcasein 5 mg/mL; for VMAX, dimethylcasein varied: dansylcadaverine 250 μM
# T2 construct: purchased Haematologic Technologies; host or cells: human plasma
# T2 sequence (P00488 39-732 limits assumed): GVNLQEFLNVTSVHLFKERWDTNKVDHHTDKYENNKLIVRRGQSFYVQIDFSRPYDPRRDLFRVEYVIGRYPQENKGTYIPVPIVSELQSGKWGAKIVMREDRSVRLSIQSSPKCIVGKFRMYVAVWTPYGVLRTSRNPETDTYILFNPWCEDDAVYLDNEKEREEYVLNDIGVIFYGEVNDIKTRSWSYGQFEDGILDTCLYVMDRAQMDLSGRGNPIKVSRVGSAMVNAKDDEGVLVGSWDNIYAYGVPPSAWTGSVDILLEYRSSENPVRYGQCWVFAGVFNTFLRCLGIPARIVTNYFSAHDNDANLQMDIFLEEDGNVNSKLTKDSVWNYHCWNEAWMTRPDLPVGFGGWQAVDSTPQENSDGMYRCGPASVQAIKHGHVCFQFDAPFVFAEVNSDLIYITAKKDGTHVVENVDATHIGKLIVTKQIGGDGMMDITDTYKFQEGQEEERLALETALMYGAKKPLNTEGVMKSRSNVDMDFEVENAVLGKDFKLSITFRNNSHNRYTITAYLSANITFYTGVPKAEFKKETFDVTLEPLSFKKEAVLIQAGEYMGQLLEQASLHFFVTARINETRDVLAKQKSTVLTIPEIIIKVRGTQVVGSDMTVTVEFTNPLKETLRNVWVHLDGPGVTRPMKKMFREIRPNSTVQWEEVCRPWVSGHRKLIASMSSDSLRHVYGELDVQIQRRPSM
# Description: To elucidate the FXIIIa inhibitory capacity of compound 16, the kinetics of dansylcadaverine conjugation with dimethylcasein by FXIIIa were investigated with and without the inhibitor using the bisubstrate fluorescence assay.[36],[49],[55] At a fixed, high concentration of dansylcadaverine (250 μM), the initial rate of conjugation increased in a hyperbolic manner with increasing concentration of dimethylcasein (0–15 mg/mL) (Figure 6A) in the presence as well as absence of inhibitor 16. Analysis using the Michaelis equation led to KM values for dimethylcasein of 0.65 ± 0.04 mg/mL (∼29.5 μM) and 7.54 ± 0.90 mg/mL (∼342.7 μM) in the absence and presence of 16, respectively (Table 4). […] To derive kinetic constants for dansylcadaverine, we used a fixed, high concentration of dimethylcasein (5 mg/mL) and studied the initial rate of conjugation, as described above. […] It is important to note that FXIIIa-mediated reaction is a bisubstrate conjugation reaction and its interaction with inhibitor 16 is sensed differently by the two substrates. […] Yet, for both substrates, there was a similar slight decrease (∼1.5-fold) in the VMAX with the same inhibitor concentration. In these experiments inhibitor 16 was used at varying levels, of which the highest concentration ensured that FXIIIa was essentially fully saturated and inhibited.
# The initial rate of FXIIIa-mediated conjugation between dansylcadaverine and N,N-dimethylcasein was determined by monitoring the linear increase in fluorescence at λEM = 550 nm (λEX = 360 nm). This initial rate was assessed as a function of various concentrations of either (1) dansylcadaverine (ranging from 0 to 15 mM; resulting effective concentrations in the well were 0–750 μM) at a fixed saturating concentration of dimethylcasein (5 mg/mL), or (2) dimethylcasein (ranging from 0 to 15 mg/mL) at a fixed concentration of dansylcadaverine (5 mM; resulting effective concentration of 250 μM), both in the absence or presence of inhibitor 16 (at concentrations of 0, 0.5, 2.5, 15, and 25 μM). These assays were conducted in 50 mM Tris-HCl buffer at pH 8.0, containing 100 mM NaCl, 1 mM DTT, and 10 mM CaCl2 at 37 °C. The obtained data were fitted using the standard Michaelis–Menten equation (eq 2) to determine the values of KM and VMAX. [drawing 2] 2
smiles,measurement,setting,value
Nc1c(/N=N/c2ccc(S(=O)(=O)CCOS(=O)(=O)O)cc2)c(S(=O)(=O)O)cc2cc(S(=O)(=O)O)c(/N=N/c3ccc(S(=O)(=O)CCOS(=O)(=O)O)cc3)c(O)c12 [compound 16],selectivity for FXIIIa over papain,[1],> 200 fold
same,papain inhibition at the highest concentration tested,[1]; 500 μM,did not inhibit
same,mechanism of FXIIIa inhibition (Michaelis–Menten kinetics),[2],only competes with the Gln-donor protein substrate
same,"decrease in VMAX, dansylcadaverine varied",[2]; 16 at 25 μM vs absence,~1.5 fold
same,"decrease in VMAX, dimethylcasein varied",[2]; 16 at 25 μM vs absence,~1.4 fold
same,decrease in dansylcadaverine binding affinity (KM increase),[2]; 16 at 25 μM vs absence,~2 fold
same,decrease in dimethylcasein binding affinity (KM increase),[2]; 16 at 25 μM vs absence,~11.6 fold
same,"VMAX, dansylcadaverine varied",[2]; [16] = 0.5 μM,111.4 ± 4.1 RFU/min (×10^3)
same,"VMAX, dimethylcasein varied",[2]; [16] = 0.5 μM,43.5 ± 2.4 RFU/min (×10^3)
same,"VMAX, dansylcadaverine varied",[2]; [16] = 2.5 μM,89.76 ± 3.8 RFU/min (×10^3)
same,"VMAX, dimethylcasein varied",[2]; [16] = 2.5 μM,42.0 ± 0.6 RFU/min (×10^3)
same,"VMAX, dansylcadaverine varied",[2]; [16] = 15 μM,81.94 ± 4.0 RFU/min (×10^3)
same,"VMAX, dimethylcasein varied",[2]; [16] = 15 μM,44.5 ± 1.5 RFU/min (×10^3)
same,"VMAX, dansylcadaverine varied",[2]; [16] = 25 μM,69.69 ± 2.9 RFU/min (×10^3)
same,"VMAX, dimethylcasein varied",[2]; [16] = 25 μM,34.9 ± 2.0 RFU/min (×10^3)
